From PubChem BioAssay (NCI) come the findings set out here.

Common to all, as to assay: NCI tumour cell line growth inhibition, 48 h
Experiment [1] relates to NCI-H226 lung.
The subject of experiment [2] is ACHN renal.
Experiment [3] concerns MDA-MB-231 breast.
Experiment [4] has as its system IGROV1 ovarian.
In experiment [5] the test system is MOLT-4 leukemia.
In experiment [6] the test system is RPMI-8226 leukemia.
The test system of experiment [7] is U251 CNS.
Experiment [8] deals with EKVX NSCLC.
The test system of experiment [9] is HCT-15 colon.
In experiment [10] the test system is KM12 colon.

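A five-concentration, 48-hour dose response in 96-well plates underlies each endpoint, interpolated linearly between surrounding concentrations. Here, GI50 denotes the concentration required for 50% inhibition of growth. Definition used: TGI = concentration required for complete inhibition of growth.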

`Cc1ccc(-n2nnnc2-c2cnc(N3CCOCC3)nc2-c2cccc(C(F)(F)F)c2)cc1`: the GI50 was 1.51 µM in [1]; 4 µM in experiment [2]; 3.24 µM in experiment [3]; 1630 nM in experiment [4]; 2180 nM in experiment [5]; 1280 nM in experiment [6]. The GI50 in experiment [7] was 3.52 µM; in experiment [8], 3.93 µM; in experiment [9] it was 3 µM; in [10], 1.26 µM. Moreover, the TGI is 10.8 µM in experiment [1]; over 14.7 µM in [2]; over 12.2 µM in experiment [3]; over 10.7 µM in experiment [4]; over 10.4 µM in experiment [5]; 3.77 µM in [6]. Further, the TGI is over 10.6 µM in experiment [7], over 50 µM in experiment [8], 8.57 µM in experiment [9] and 3.59 µM in experiment [10].
Consider `CCCCNc1ccc(Nc2ccccc2)cc1`, for which the GI50 in experiment [1] was 12.5 µM; in experiment [2], 16.7 µM; in experiment [3], 16.9 µM; in experiment [4], 5610 nM; in experiment [5] it was 3230 nM; in experiment [6], 1720 nM. Besides, the GI50 in experiment [7] was 3.89 µM; in experiment [8], 3.53 µM; in [9], 21.3 µM; in experiment [10], 4.02 µM. Also, the TGI is over 100 µM in [1]; over 100 µM in experiment [2]; 95 µM in experiment [3]; 27.2 µM in [4]; 25.9 µM in experiment [5]; 4.86 µM in experiment [6]. For the same compound, the TGI in [7] was over 100 µM; in experiment [8], over 100 µM; in [9], over 100 µM; in experiment [10], 32.6 µM.
On to `Cc1cc(O)c(C2=NN(c3ccc(S(N)(=O)=O)cc3)C(/C=C/c3ccccc3)C2)cc1Cl` (stereo not drawn), for which the GI50 was 5.21 µM in experiment [1]; 5.27 µM in experiment [2]; 4.56 µM in experiment [3]; 4320 nM in experiment [4]; 17700 nM in [5]; 4950 nM in experiment [6]. Further, the GI50 is 3.79 µM in experiment [7], 14.2 µM in experiment [8], 18.9 µM in experiment [9] and 11.7 µM in experiment [10]. Also, the TGI in experiment [1] was 19.2 µM; in [2] it was 21.9 µM; in [3], 16.3 µM; in experiment [4], 19.8 µM; in [5], 73.7 µM; in [6], 20.6 µM. Besides, the TGI is 15.6 µM in [7], 35.3 µM in experiment [8], over 100 µM in experiment [9] and 34.8 µM in experiment [10].
Regarding `O=[N+]([O-])c1cc([N+](=O)[O-])c(Cl)cc1Cl`, the GI50 in experiment [1] was 2.22 µM; in [2], 1.62 µM; in experiment [3], 1.94 µM; in experiment [4], 1170 nM; in experiment [5], 918 nM; in [6], 667 nM. In addition, the GI50 in experiment [7] was 0.211 µM; in experiment [8] it was 1.68 µM; in [9], 1.35 µM; in experiment [10] it was 1.64 µM. Moreover, the TGI was 5.78 µM in experiment [1]; 3.29 µM in [2]; 3.7 µM in [3]; 2.74 µM in experiment [4]; 4.4 µM in experiment [5]; 2.8 µM in experiment [6]. For the same compound, the TGI in [7] was determined as 0.476 µM; in [8], 3.31 µM; in experiment [9], 3.73 µM; in [10], 3.05 µM.
For the compound `NC1(Cc2ccc(Cl)cc2)CCN(c2ncnc3[nH]ccc23)CC1`, the GI50 in experiment [1] was 6.96 µM; in [2] it was 5.58 µM; in [3], 6.9 µM; in experiment [4] it was 1010 nM; in experiment [5], 1910 nM; in experiment [6], 4370 nM. For the same compound, the GI50 was 3.73 µM in experiment [7], 2.69 µM in [8], 5.64 µM in experiment [9] and 3.02 µM in [10]. Besides, the TGI stood at 25.1 µM in experiment [1]; 32.1 µM in experiment [2]; 26.9 µM in experiment [3]; 7.8 µM in experiment [4]; 17.3 µM in [5]; 26.5 µM in experiment [6]. Besides, the TGI in experiment [7] worked out at 17.5 µM; in experiment [8], 18.5 µM; in [9], 23.9 µM; in experiment [10] it was 13.9 µM.
For the compound `CCCCOC1OC(COC(=O)C(C)C)C(OC(=O)C(C)C)C(O)C1OC1OC(C)C(OC(=O)CCC)C(OC(=O)C(C)C)C1O` (stereo not drawn), the GI50 in experiment [1] is 9.64 µM; in [2] it was 14.9 µM; in experiment [3], 10.1 µM; in [4], 22700 nM; in experiment [5], 1710 nM; in experiment [6] it was 2270 nM. Also, the GI50 in [7] is 13.6 µM; in [8], 12.5 µM; in experiment [9] it was 14.2 µM; in [10], 15.1 µM. In addition, the TGI in experiment [1] is 22.2 µM; in experiment [2], 28.1 µM; in [3], 21.7 µM; in experiment [4], 58.5 µM; in experiment [5] it was 4.12 µM; in experiment [6] it was 8.95 µM. The TGI in [7] came out at 26.4 µM; in [8], 25.2 µM; in [9] it was 27.3 µM; in experiment [10], 29 µM.
For `COc1cc2oc3c(c(=O)c2c(O)c1/C=C/C(C)C)C(C=C(C)C)Oc1cc(O)ccc1-3` (stereo not drawn), the TGI turned out to be 32.7 µM in experiment [1]; 29.4 µM in experiment [2]; 33.2 µM in [3]; 27.7 µM in [4]; 25.8 µM in [5]; 33.9 µM in experiment [6]. Further, the TGI came to 31.1 µM in experiment [7], 30.3 µM in [8], 31.7 µM in experiment [9] and 34.5 µM in experiment [10].
Regarding `COc1cnc2c(c1)C(=O)c1c-2n(CCCN2CCC(O)CC2)c(=O)c2cc(Cl)ccc12`, the GI50 was 0.662 µM in experiment [1]; 0.0903 µM in experiment [2]; 1.51 µM in experiment [3]; 74.5 nM in experiment [5]; 947 nM in [6]; 0.0904 µM in [7]. The values for the GI50 in experiment [8], in [9] and in experiment [10] were 1.84 µM, 1.17 µM and 1.43 µM, respectively. Besides, the TGI in [1] was 23.6 µM; in experiment [2], 1.5 µM; in experiment [3] it was 3.12 µM; in experiment [5] it was 5.34 µM; in experiment [6] it was 5.19 µM; in experiment [7], 1.7 µM. For the same compound, the TGI in [8] turned out to be 5.85 µM; in [9], 2.55 µM; in experiment [10], 3.64 µM.
